Experiments:
Type in all cases: in vivo
CD25+ Foxp3+ cells = experiment: Percentage of CD25+ Foxp3+ cells in lymph nodes of CIA mice; settings: day 60 after immunization, i.p. treatment, mean (SEM), n=3
From the text: With continued reference to FIG. 1, in some embodiments, administration 116 may be done to an animal. As a non-limiting example, the animal may include a mouse, a fish, a rabbit, human, and the like. As a non-limiting example, administration 116 of composition of the engineered virus-based nanoparticle for a treatment of an autoimmune condition may be done to dilute, brown, and non-agouti (DBA) mice based on their susceptibility to collagen-induced arthritis (CIA). Female DBA/1 mice 6 to 8 weeks of age may be maintained under specific pathogen-free conditions. CIA may be induced by the intradermal tail base injection of 100 μg of chicken type II collagen (Sigma-Aldrich) as previously described. […] CIA may be assessed using a macroscopic score system based on the visual identification of arthritic limbs. The clinical severity of arthritis may be evaluated as follows: Each mouse may be inspected every 2 to 3 days for three different parameters: (i) swelling of the hind ankle and foot, measured with calipers; (ii) erythema of each leg; and (iii) swelling of the fingers. The RA index for each mouse was expressed as the mean of the three scores from the individual parameters. At the end of the experiment (60 days), we determined the proportion of CD25+Foxp3+ cells in the lymph nodes and measured cytokine titers in the lymph nodes, joints, and serum. […]

IL-1β = experiment: Pro-inflammatory cytokines in sera of CIA Collagen mice (ELISA, day 58): IL-1β; settings: Dexamethasone oral 1 mg/kg, 20 times between day 28 and 57
Description: (§1) Critical administration 124 disclosed herein is further described below. Q5D represents administration 5 days a part. TBSV·pLIp1 and wt TBSV shown in Table 1 may include liquid form that are not sterile and stored in −20° C. TBSV·pLIp1 may be given at the dose of 50 μG/100 μL Male DBA/1J mice (8 weeks; Envigo, Italy) may be used for these studies. Mice may be housed in individual cages (two for each group) and maintained under a 12:12 light-dark cycle at 21° C.±1° C. and 50%±5% humidity. The animals may be acclimated to their environment for 1 week and had ad libitum access to tap water and standard rodent diet. All animal experiments may be complied with regulations in Italy (D.M. 116192), Europe (O.J of E.C. L 358/112/18/1986), and the United States (Animal Welfare Assurance Number A5594-01, Department of Health and Human Services, USA). […] Arthritis was assessed by using qualitative severity score system and hind paw volume (mL) measured by a plethysmometer on day 20, 22, 24, 26, 28, 30, 32, 34, 36, 38, 40, 42, 44, 46 48, 50, 52, 54, 56 and 58. Body weight was recorded on day 0, 6, 13, 16, 18, 20, 22, 24, 26, 28, 30, 32, 34, 36, 38, 40, 42, 44, 46, 50, 52, 54, 56 and 58. […]

IL-17A = experiment: Pro-inflammatory cytokines in sera of CIA Collagen mice (ELISA, day 58): IL-17A; settings: Dexamethasone oral 1 mg/kg, 20 times between day 28 and 57
Description: as §1

## C[C@@H]1C[C@H]2[C@@H]3CCC4=CC(=O)C=C[C@]4(C)[C@@]3(F)[C@@H](O)C[C@]2(C)[C@@]1(O)C(=O)CO [Dexamethasone, dexamethasone]
CD25+ Foxp3+ cells
  % CD25^+/Foxp3^+: 3.26 (0.84) %
IL-1β
  IL-1β, % of reduction vs CIA Collagen: 22.74%
IL-17A
  IL-17A, % of reduction vs CIA Collagen: 25.07%
